From patent publication US11180484B2, “Pyrazole derivatives as plasma kallikrein inhibitors” (KALVISTA PHARMACEUTICALS LIMITED, priority 2016, dated 2021)
In brackets after ≈: the same amount, converted by molar mass. Like-named read-outs stand apart in the source and are kept apart here.

Columns and labels:
[1] = target: T1, Human plasma kallikrein (Homo sapiens (Human), UniProt P03952); experiment: Determination of the IC50 for plasma kallikrein; format: biochemical; details: 25° C., substrate H-DPro-Phe-Arg-AFC; read-out: IC50 (human PKal)
Procedure: Human plasma kallikrein (Protogen) was incubated at 25° C. with the fluorogenic substrate H-DPro-Phe-Arg-AFC and various concentrations of the test compound. Residual enzyme activity (initial rate of reaction) was determined by measuring the change in […] at 410 nm and the IC50 value for the test compound was determined.

[2] = target: Human KLK1 (Homo sapiens (Human), UniProt P06870); experiment: Determination of the IC50 for KLK1; format: biochemical; details: 25° C., substrate H-DVal-Leu-Arg-AFC
Procedure: Human KLK1 (Callbiochem) was incubated at 25° C. with the fluorogenic substrate H-DVal-Leu-Arg-AFC and various concentrations of the test compound. Residual enzyme activity (initial rate of reaction) was determined by measuring the change in […] at 410 nm and the IC50 value for the test compound was determined.

[3] = target: Human FXIa (Homo sapiens (Human), UniProt P03951); experiment: Determination of the % inhibition / IC50 for FXIa; format: biochemical; details: for inhibition at 40 µM: 40 μM test compound, read-out: % Inhibition @ 40 μM (human FXIa); for IC50: 25° C., substrate Z-Gly-Pro-Arg-AFC
Procedure: FXIa inhibitory activity in vitro was determined using standard published methods (see e.g. Johansen et al., Int. J. Tiss. Reac. 1986, 8, 185; Shori et al., Biochem. Pharmacol., 1992, 43, 1209; Sturzebecher et al., Biol. Chem. Hoppe-Seyler, 1992, 373, 1025). […]

[4] = target: Human Factor XIIa (Homo sapiens (Human), UniProt P00748); experiment: Factor XIIa inhibitory activity in vitro; format: biochemical; details: 25° C., substrate H-DPro-Phe-Arg-AFC; read-out: IC50 (human FXIIa)
Procedure: Human Factor XIIa (Enzyme Research Laboratories) was incubated at 25° C. with the fluorogenic substrate H-DPro-Phe-Arg-AFC and various concentrations of the test compound. Residual enzyme activity (initial rate of reaction) was determined by measuring the change in […] at 410 nm and the IC50 value for the test compound was determined.

[5] = target: plasmin (Homo sapiens (Human), UniProt P00747); experiment: Determination of enzyme selectivity: plasmin; format: biochemical; details: substrate at Km concentration
Procedure: (§2) Human serine protease enzymes plasmin, thrombin and trypsin were assayed for enzymatic activity using an appropriate fluorogenic substrate. Protease activity was measured by monitoring the accumulation of liberated fluorescence from the substrate over 5 minutes. The linear rate of fluorescence increase per minute was expressed as percentage (%) activity. The Km for the cleavage of each substrate was determined by standard transformation of the Michaelis-Menten equation.

[6] = target: thrombin (Homo sapiens (Human), UniProt P00734); experiment: Determination of enzyme selectivity: thrombin; format: biochemical; details: substrate at Km concentration
Procedure: as §2

[7] = target: trypsin; experiment: Determination of enzyme selectivity: trypsin; format: biochemical, human; details: substrate at Km concentration
Procedure: as §2

[8] = In vitro permeability, Caco-2 model for oral absorption; format: in vitro ADME; details: human, apical to basolateral, 50 μM test compound, 37° C.
Outline: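 Caco-2 monolayers grown on collagen inserts for 3 days, with 50 μM compound added apically and incubated 1 hour at 37° C with shaking. Apical-to-basolateral transport measured by LCMS in both compartments. Monolayer integrity checked by TEER before and after, and by Lucifer Yellow flux.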

[9] = Intrinsic clearance in human liver microsomes; format: in vitro ADME; details: human liver microsomes 0.5 mg/mL, 5 μM test compound, 37° C.; read-out: Human liver microsome (Clint μL/min/mg protein)
Procedure: (§1) Rat or human liver microsomes (0.5 mg/mL; Corning) were incubated with 5 μM test compound at 37° C. on a shaking platform (150 rpm). Samples were taken at 0, 6, 12, 18, 24 and 60 min and test compound concentrations were determined by LCMS against a calibration curve.

[10] = Intrinsic clearance in rat liver microsomes; format: in vitro ADME; details: rat liver microsomes 0.5 mg/mL, 5 μM test compound, 37° C.; read-out: rat liver microsome (Clint μL/min/mg protein)
Procedure: as §1

[11] = Plasma protein binding (PPB), rapid equilibrium dialysis, human plasma; format: in vitro ADME; details: 5 μM test compound, dialysis 5 hrs at 37° C.
[12] = Plasma protein binding (PPB), rapid equilibrium dialysis, rat plasma; format: in vitro ADME; details: 5 μM test compound, dialysis 5 hrs at 37° C.
[13] = Predicted plasma clearance (Clp), well-stirred model, human; format: in vitro ADME; details: percentage of hepatic blood flow
[14] = Predicted plasma clearance (Clp), well-stirred model, rat; format: in vitro ADME; details: percentage of hepatic blood flow
[15] = Pharmacokinetics following a single oral dose in male Sprague-Dawley rats; format: in vivo; details: rat, single po dose (nominal 10 mg/kg; actual dose per row in column Dose po), 10% DMSO/10% cremophor/80% SWFI, plasma
Procedure: Pharmacokinetic studies of the compounds in Table 13 were performed to assess the pharmacokinetics following a single oral dose in male Sprague-Dawley rats. Two rats were given a single po dose of 5 mL/kg of a nominal 2 mg/mL (10 mg/kg) composition of test compound in vehicle. Following dosing, blood samples were collected over a period of 24 hours. Sample times were 5, 15 and 30 minutes then 1, 2, 4, 6, 8 and 12 hours. Following collection, blood samples were centrifuged and the plasma fraction analysed for concentration of test compound by LCMS.

[16] = Solubility in water and 0.1N HCl (aq); format: physicochemical; details: thermodynamic from solid, incubated at 1 mg/mL, 37° C.
Procedure: Solubility was determined in water and 0.1N HCl (aq). Test compounds were incubated at 1 mg/mL for 24 hrs at 37° C. on a shaking platform (500 rpm). Samples were taken at 1, 4 and 24 hrs and centrifuged at 15,000 g for 10 min. Test compound concentration in the supernatant was determined by LCMS against a standard curve.

[17] = target: T1, Human plasma kallikrein; experiment: Determination of the Ki for plasma kallikrein (mixed-model inhibition); format: biochemical; details: for Ki: human plasma kallikrein, mixed-model inhibition equation; for Alpha: parameter of the mixed-model equation indicating mechanism of inhibition
[18] = simulated gastric fluid, 0.1N HCl (aq), read-out: Solubility 0.1N HCl (aq)
[19] = water, read-out: Solubility Water

Human Factor XIIa, sequence (P00748 373-615): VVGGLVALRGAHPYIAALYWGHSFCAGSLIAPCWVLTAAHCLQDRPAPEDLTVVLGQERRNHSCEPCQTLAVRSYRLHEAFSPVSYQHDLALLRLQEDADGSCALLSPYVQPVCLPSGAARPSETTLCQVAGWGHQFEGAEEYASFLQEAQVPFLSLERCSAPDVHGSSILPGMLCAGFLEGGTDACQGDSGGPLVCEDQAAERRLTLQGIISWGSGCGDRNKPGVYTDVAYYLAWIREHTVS
T1 sequence (P03952 391-638): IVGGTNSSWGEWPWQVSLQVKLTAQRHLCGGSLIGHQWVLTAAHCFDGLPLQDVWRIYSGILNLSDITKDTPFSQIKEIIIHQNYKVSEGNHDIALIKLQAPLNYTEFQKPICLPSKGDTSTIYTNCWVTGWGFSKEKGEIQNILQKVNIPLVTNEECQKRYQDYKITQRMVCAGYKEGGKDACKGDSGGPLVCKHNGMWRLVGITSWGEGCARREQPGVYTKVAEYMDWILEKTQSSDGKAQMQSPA
T1 sequence (P03952 20-390): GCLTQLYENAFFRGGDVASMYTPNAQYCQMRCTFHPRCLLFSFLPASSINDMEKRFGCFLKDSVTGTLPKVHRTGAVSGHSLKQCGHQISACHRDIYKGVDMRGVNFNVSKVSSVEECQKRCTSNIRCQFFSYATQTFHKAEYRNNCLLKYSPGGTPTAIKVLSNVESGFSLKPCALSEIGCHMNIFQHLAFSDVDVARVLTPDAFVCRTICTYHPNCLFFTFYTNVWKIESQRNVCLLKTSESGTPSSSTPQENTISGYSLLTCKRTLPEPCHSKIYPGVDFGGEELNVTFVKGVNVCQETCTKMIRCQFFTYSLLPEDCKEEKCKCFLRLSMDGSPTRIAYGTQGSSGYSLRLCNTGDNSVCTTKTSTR
Human KLK1, sequence (P06870 25-262): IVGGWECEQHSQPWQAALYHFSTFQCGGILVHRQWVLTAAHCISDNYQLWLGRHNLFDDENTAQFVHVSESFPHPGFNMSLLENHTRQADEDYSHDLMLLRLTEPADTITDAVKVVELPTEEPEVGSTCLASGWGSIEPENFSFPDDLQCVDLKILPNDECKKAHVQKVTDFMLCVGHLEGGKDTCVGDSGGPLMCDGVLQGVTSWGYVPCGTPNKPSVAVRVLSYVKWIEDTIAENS
plasmin, sequence (P00747 581-810): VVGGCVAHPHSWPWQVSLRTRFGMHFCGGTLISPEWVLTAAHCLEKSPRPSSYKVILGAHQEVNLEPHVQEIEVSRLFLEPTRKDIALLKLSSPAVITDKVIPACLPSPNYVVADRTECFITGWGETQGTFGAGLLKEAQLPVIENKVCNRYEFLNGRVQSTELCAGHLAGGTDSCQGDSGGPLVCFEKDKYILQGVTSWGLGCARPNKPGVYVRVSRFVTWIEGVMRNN
plasmin, sequence (P00747 97-580): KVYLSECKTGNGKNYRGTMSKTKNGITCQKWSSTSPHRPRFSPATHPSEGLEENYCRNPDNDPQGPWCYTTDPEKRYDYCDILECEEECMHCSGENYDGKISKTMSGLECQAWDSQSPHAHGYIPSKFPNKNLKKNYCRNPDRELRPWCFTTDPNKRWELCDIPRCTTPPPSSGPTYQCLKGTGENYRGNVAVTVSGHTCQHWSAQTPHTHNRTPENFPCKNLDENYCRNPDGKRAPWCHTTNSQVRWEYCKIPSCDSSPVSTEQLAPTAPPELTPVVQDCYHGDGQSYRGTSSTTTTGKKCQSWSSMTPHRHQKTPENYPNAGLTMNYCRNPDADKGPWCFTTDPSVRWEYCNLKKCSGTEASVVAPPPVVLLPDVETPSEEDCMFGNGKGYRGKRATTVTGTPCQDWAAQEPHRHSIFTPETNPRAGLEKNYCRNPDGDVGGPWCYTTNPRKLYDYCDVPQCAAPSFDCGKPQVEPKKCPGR
Human FXIa, sequence (P03951 388-625): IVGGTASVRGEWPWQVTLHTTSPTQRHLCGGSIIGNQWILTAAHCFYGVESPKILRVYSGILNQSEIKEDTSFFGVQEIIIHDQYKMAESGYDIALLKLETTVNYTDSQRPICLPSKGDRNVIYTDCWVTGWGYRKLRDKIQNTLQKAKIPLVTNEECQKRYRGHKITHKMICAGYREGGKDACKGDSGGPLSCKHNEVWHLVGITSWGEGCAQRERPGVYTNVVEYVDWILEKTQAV
Human FXIa, sequence (P03951 19-387): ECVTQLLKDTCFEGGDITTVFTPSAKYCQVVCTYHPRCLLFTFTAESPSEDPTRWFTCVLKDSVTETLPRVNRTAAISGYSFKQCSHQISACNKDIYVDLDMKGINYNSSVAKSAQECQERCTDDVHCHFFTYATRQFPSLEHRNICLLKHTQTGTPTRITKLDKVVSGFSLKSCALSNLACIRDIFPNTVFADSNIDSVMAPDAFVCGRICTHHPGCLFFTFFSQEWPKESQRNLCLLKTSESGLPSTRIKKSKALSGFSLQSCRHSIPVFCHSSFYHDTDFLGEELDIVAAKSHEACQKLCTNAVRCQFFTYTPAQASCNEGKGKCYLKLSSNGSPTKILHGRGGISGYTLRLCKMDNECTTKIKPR

Structure (SMILES)	IC50 [1] [µM]	IC50 [2] [µM]	inhibition at 40 µM [3] [%]	IC50 [3] [µM]	IC50 [4] [µM]	IC50 [5] [µM]	IC50 [6] [µM]	IC50 [7] [µM]	Papp at 1 h, 50 μM [8] [×10⁻⁶ cm/s]	microsomal CLint at 5 μM [9] [µL/min/mg]	microsomal CLint at 5 μM [10] [µL/min/mg]	fraction unbound at 5 h, 5 μM [11]	fraction unbound at 5 h, 5 μM [12]	Predicted in vivo human Clp (% LBF) [13] [% LBF]	Predicted in vivo rat Clp (% LBF) [14] [% LBF]	Cmax [15] [ng/mL]	Tmax [15] [min]	solubility [16, 18] [µg/mL]	solubility [16, 19] [µg/mL]	Ki [17] [µM]	further results
COc1ccnc(CNC(=O)c2cn(Cc3ccc(Cn4ccccc4=O)cc3)nc2C(F)(F)F)c1F [Example 6, N-[(3-fluoro-4-methoxypyridin-2-yl)methyl]-1-({4-[(2-oxopyridin-1-yl)methyl]phenyl}methyl)-3-(trifluoromethyl)pyrazole-4-carboxamide]	0.0032	> 4	2	> 40	> 4	> 40	> 40	> 40	17	42	30	0.13	0.05	24	6	1800	30				
COCc1nn(Cc2ccc(Cn3cc(F)ccc3=O)cc2)cc1C(=O)NCc1nccc(OC)c1F [Example 30, 1-({4-[(5-fluoro-2-oxopyridin-1-yl)methyl]phenyl}methyl)-N-[(3-fluoro-4-methoxypyridin-2-yl)methyl]-3-(methoxymethyl)pyrazole-4-carboxamide]	0.0067	> 40	7	> 40	> 40	> 40	> 40	> 40	24	20	22	0.18	0.03	12	1	756	38	940 (≈ 1840 µM)	290 (≈ 569 µM)		
COc1ccc(F)c(CNC(=O)c2cn(Cc3ccc(Cn4ccccc4=O)cc3)nc2N)c1F [Example 35, 3-amino-N-[(2,6-difluoro-3-methoxyphenyl)methyl]-1-({4-[(2-oxopyridin-1-yl)methyl]phenyl}methyl)pyrazole-4-carboxamide]	0.0017	> 40	5	> 40	> 40	> 40	> 40	> 40	7	24	15	0.04	0.01	7	1			40 (≈ 83.4 µM)	20 (≈ 41.7 µM)		
COCc1nn(Cc2ccc(Cn3ccccc3=O)cc2)cc1C(=O)NCc1cc(OC)ccc1-n1cnnn1 [Example 40, N-{[5-methoxy-2-(1,2,3,4-tetrazol-1-yl)phenyl]methyl}-3-(methoxymethyl)-1-({4-[(2-oxopyridin-1-yl)methyl]phenyl}methyl)pyrazole-4-carboxamide]	0.0004	> 40	20	> 40	> 40	> 40	> 40	> 40	5	22	47	0.24	0.13	17	14					0.0001	Alpha [17]: 2.2
COCc1nn(Cc2ccc(Cn3ccccc3=O)cc2)cc1C(=O)NCc1cc(Cl)ccc1-n1cnnn1 [Example 72, N-{[5-chloro-2-(1,2,3,4-tetrazol-1-yl)phenyl]methyl}-3-(methoxymethyl)-1-({4-[(2-oxopyridin-1-yl)methyl]phenyl}methyl)pyrazole-4-carboxamide]	0.0007	> 4		10.6	> 4	> 40	39.2	> 40	6	32	72	0.1	0.06	14	12			46 (≈ 84.4 µM)	46 (≈ 84.4 µM)	0.00016	Alpha [17]: 6.0; inhibition at 12.7 µM ([3]; 12.7 μM test compound): 53%
